Laboratory results published in PMC7822874, “Chemoprotective antimalarials identified through quantitative high-throughput screening of Plasmodium blood and liver stage parasites” (Scientific Reports, 2021).
Like-named read-outs stand apart in the source and are kept apart here.

Experiments:
[1] = system: P. berghei-ANKA-GFP-LucCON liver stage parasites in HepG2-A16-CD81EGFP cells; assay: P. berghei liver stage Pb-Luc assay, Method 1 (UCSD, 1536-well); format: cell-based, Plasmodium berghei; conditions: P. berghei liver stage, averaged response (percent); for Average P. berghei 1 µM response (%): the header list (r8) defines it as the 1 µM dose
HepG2-A16-CD81EGFP cells = conditions: averaged response (percent)
[2] = system: P. falciparum Dd2 (clone B2) asexual blood stage parasites; assay: P. falciparum Dd2 asexual blood stage SYBR Green-I 72 h proliferation assay (qHTS); format: cell-based, Plasmodium falciparum; conditions: averaged P. falciparum asexual blood stage potency, log10 of AC50 in M
[3] = HepG2, the header list (r10) describes it as the 1 µM dose

| SMILES | Average P. berghei 3 µM response( %) [1] [%] | Average P. berghei 1 µM response (%) [1] [%] | Average HepG2 3 µM response( %) (HepG2-A16-CD81EGFP cells; HepG2, 3 µM dose) [%] | Average HepG2 3 µM response( %) (HepG2-A16-CD81EGFP cells; [3]) [%] | Pf ABS Log AC50 (M) [2] [M] |
| --- | --- | --- | --- | --- | --- |
| CCOc1ccc(Nc2nc(NCC3CCCO3)c3ccccc3n2)cc1 (stereo not shown) [MLS000724397] | 10 | 59 | 84 | 102 | -5.737 |
| OC(CNCCNc1ncccc1C(F)(F)F)Cn1ccc2ccccc21 (stereo not shown) [MLS000833573] | 109 | 113 | 95 | 101 | -5.662 |
| CCOC(=O)N1CCc2c(sc3nc4n(c(=O)c23)N=C(c2ccc(OC)cc2)CS4)C1 [MLS000859689] | 87 | 113 | 98 | 100 | -5.012 |
| Oc1ccc(C2NCc3ccccc3-n3cccc32)cc1Cl (stereo not shown) [MLS000878874] | 82 | 96 | 105 | 105 | -5.925 |
| COc1cc(O)c(C(CCN2CCCC(C)C2)c2cc(OC)c(OC)c(OC)c2)c(OC)c1 (stereo not shown) [MLS000879467] | 71 |  | 86 | 89 | -5.687 |
| COc1ccc(C(CCN2CCCCC2)c2c(O)cc(OC)cc2OC)cc1 (stereo not shown) [MLS000879486] | 88 | 105 | 88 | 92 | -5.962 |
| CN(CC(=O)Nc1cccc(F)c1)C(=O)c1ccc(-c2cccc(C(F)(F)F)c2)o1 [MLS001139679] | 89 | 141 | 100 | 103 | -6.362 |
| c1ccc(CNc2nc(-c3ccccn3)nc3ccccc23)cc1 [MLS001165148] | 8 | 72 | 87 | 96 | -5.662 |
| CCOC(=O)C1=C(C)N=c2s/c(=C/c3ccc(OCC(=O)O)cc3)c(=O)n2C1c1cc(OC)c(OC)c(OC)c1 (stereo not shown) [MLS001178475] | 74 | 98 | 99 | 99 | -5.737 |
| Cc1ccc2[nH]c(C(=O)Nc3ccc(F)cc3)cc2c1 [MLS001183414] | 91 | 92 | 100 | 100 | -4.837 |
| N=c1n(N)c2ccccc2n1CC(=O)c1ccc(Br)cc1 [MLS001183984] | 137 | 110 | 102 | 102 | -5.837 |
| c1ccc2c(NCCc3c[nH]c4ccccc34)c3ccccc3nc2c1 [MLS001195935] | 47 |  | 82 | 91 | -5.937 |
| CN(C)c1cc[n+](CC(=O)c2cccs2)cc1 [MLS001207444] | 62 | 89 | 101 | 101 | -5.387 |
| CN1CCC(NCCC(c2ccc(F)cc2)c2ccc(Cl)cc2)CC1 (stereo not shown) [MLS001215866] | 70 | 103 | 100 | 100 | -5.437 |
| C=C(C)COc1ccc(-c2ncnc(C(F)(F)F)c2-c2ccc(OC)cc2)c(O)c1 [MLS001216205] | 105 | 107 | 103 | 92 | -5.462 |
| O=C1c2cc(F)ccc2-n2c1nc1ccccc1c2=O [MLS001216278] | 13 | 25 | 94 | 94 | -5.937 |
| Cc1ccc(/C=N/NC(=O)c2cc3ccccc3cc2O)o1 [MLS001219838] | 6.47 | 18 | 98 | 98 | -5.275 |

| SMILES | Average P. berghei 3 µM response( %) [1] [%] | Average P. berghei 1 µM response (%) [1] [%] | Average HepG2 3 µM response( %) (HepG2-A16-CD81EGFP cells; HepG2, 3 µM dose) [%] | Average HepG2 3 µM response( %) (HepG2-A16-CD81EGFP cells; [3]) [%] | Pf ABS Log AC50 (M) [2] [M] |
| --- | --- | --- | --- | --- | --- |
| O=C(c1ccc([N+](=O)[O-])o1)N1CCN(c2nc3c(F)cc(F)cc3s2)CC1 [MLS001234228] | 65 | 77 | 107 | 103 | -5.462 |
| COC(=O)[C@H]1[C@H]2C[C@@H]3c4[nH]c5cc(OC)ccc5c4CCN3C[C@H]2C[C@@H](OC(=O)/C=C/c2cc(OC)c(OC)c(OC)c2)[C@@H]1OC [MLS002153878] | 84 | 102 | 105 | 105 | -5.162 |
| O=S1(=O)N(CCN2CC=C(c3c[nH]c4cc(F)ccc34)CC2)c2cccc3c2N1CCC3 [MLS002172448] | 60 | 78 | 80 | 88 | -6.050 |
| CCN1CCN(Cc2ccc(NC(=O)c3cc(NC(=O)C(=O)c4c[nH]c5ccccc45)cc(OC)c3)cc2C(F)(F)F)CC1.O=C(O)C(F)(F)F [MLS003105970] | 54 | 132 | 106 | 106 | -6.175 |
| COc1ccc(CCN2CCC(Nc3nc4ccccc4n3Cc3ccc(F)cc3)CC2)cc1 [NCGC00016913] | 43 | 54 | 100 | 99 | -5.658 |
| COc1ccc(-c2c3c(nc4sc(C(=O)Nc5ccc(Cl)cc5)c(N)c24)CC(C)(C)CC3=O)cc1 [NCGC00100738] | 90 | 111 | 109 | 104 | -6.425 |
| Cc1cc(Oc2c(C(F)(F)F)oc3c(CN4CCC(C)CC4)c(O)ccc3c2=O)cc(C)c1Cl [NCGC00101140] | 71 | 85 | 111 | 110 | -6.125 |
| CCN(CC)CCn1c(=N)n(CC(O)COc2ccccc2C)c2ccccc21 (stereo not shown) [NCGC00101835] | 72 | 117 | 100 | 104 | -5.475 |
| Cc1ccc(NC(=O)CCS(=O)(=O)c2cc(Br)cc3c2N(C(=O)C2CC2)CC3)cc1 [NCGC00107230] | 118 | 117 | 102 | 99 | -5.625 |
| CCN1CCN(C(=O)c2ccc3c(c2)N(Cc2c(F)cccc2Cl)C(=O)c2ccccc2S3)CC1 [NCGC00108184] | 76 | 94 | 107 | 105 | -8.075 |
| CCCN(CCC)CCNC(=O)c1cc2c(-c3ccc(Cl)cc3)nn(C)c2s1 [NCGC00108997] | 49 | 57 | 98 | 102 | -6.212 |
| CCN1CCN(C(=O)c2ccc3c(c2)N(Cc2ccccc2F)C(=O)c2ccccc2[S+]3[O-])CC1 (stereo not shown) [NCGC00109528] | 103 | 106 | 98 | 98 | -6.075 |
| Cc1ccc2oc(=O)c3cnn(CC(=O)Nc4cccc(C(F)(F)F)c4)c3c2c1 [NCGC00110933] | 101 | 114 | 98 | 97 | -5.575 |
| CCOCCCNc1nc2cc(OC)c(OC)cc2c2nc(-c3ccccc3)nn12 [NCGC00112857] | 104 | 109 | 99 | 97 | -6.675 |
| O=c1cc(-c2ccccc2)c2ccc3c(c2o1)CN(Cc1ccccc1)CO3 [NCGC00116340] | 76 | 87 | 100 | 102 | -5.575 |
| CC(C)OCCCNc1sc([S+](=O)([O-])c2ccccc2)nc1[S+](=O)([O-])c1ccc(Cl)cc1 [NCGC00116822] | 76 | 75 | 94 | 93 | -6.575 |
